One assay addresses T1, Adenosine receptor A1 (Homo sapiens, UniProt P30542).
T1 sequence (P30542 whole entry): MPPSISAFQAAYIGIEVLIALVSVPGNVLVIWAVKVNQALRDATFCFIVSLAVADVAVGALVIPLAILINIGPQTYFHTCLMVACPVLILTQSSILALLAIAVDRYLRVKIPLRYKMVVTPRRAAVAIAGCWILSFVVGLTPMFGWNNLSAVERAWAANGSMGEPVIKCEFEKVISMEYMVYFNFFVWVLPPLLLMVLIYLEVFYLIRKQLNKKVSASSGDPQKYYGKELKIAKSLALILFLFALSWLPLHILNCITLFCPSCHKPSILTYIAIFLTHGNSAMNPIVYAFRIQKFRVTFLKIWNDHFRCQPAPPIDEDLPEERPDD
Description: Displacement of [3H]CCPA from human A1 adenosine receptor expressed in CHO cells. In kind it is cell-based.

The target of the next assay is Adenosine receptor A2a (Homo sapiens, UniProt P29274). Description: Displacement of [3H]NECA from human A2A adenosine receptor expressed in CHO cells. In kind it is cell-based. In general terms: In a radioligand displacement assay an active substance lowers the binding of a labelled ligand.
Adenosine receptor A2a, sequence (P29274 whole entry): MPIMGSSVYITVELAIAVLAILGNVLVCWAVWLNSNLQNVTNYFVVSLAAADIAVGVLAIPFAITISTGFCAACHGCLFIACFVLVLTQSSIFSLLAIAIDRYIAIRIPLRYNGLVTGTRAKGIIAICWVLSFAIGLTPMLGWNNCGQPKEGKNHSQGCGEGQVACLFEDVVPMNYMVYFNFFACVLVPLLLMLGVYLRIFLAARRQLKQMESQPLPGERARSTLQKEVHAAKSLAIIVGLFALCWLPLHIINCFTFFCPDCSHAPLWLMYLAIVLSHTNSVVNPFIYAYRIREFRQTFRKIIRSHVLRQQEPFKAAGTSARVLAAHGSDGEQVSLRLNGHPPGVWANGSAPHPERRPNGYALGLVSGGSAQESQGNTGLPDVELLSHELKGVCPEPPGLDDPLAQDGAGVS
A further assay addresses T2, Adenosine receptor A2b (Homo sapiens, UniProt P29275).
T2 sequence (P29275 whole entry): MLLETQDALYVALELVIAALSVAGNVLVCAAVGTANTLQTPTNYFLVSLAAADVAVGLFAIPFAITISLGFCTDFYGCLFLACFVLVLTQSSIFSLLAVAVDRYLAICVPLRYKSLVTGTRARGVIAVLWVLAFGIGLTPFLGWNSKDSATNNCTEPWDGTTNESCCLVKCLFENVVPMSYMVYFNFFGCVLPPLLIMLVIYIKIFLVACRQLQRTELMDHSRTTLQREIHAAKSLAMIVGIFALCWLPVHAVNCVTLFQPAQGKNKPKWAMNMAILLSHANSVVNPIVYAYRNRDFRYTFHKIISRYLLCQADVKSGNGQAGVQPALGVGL
Description: Antagonist activity at human A2B adenosine receptor assessed as inhibition of NECA-stimulated adenylyl cyclase activity. It is filed as functional.

The target of another assay is Adenosine receptor A3 (Homo sapiens, UniProt P0DMS8). Description: Displacement of [3H]HEMADO from human A3 adenosine receptor expressed in CHO cells. It is filed as cell-based.
Adenosine receptor A3, sequence (P0DMS8 whole entry, looked up): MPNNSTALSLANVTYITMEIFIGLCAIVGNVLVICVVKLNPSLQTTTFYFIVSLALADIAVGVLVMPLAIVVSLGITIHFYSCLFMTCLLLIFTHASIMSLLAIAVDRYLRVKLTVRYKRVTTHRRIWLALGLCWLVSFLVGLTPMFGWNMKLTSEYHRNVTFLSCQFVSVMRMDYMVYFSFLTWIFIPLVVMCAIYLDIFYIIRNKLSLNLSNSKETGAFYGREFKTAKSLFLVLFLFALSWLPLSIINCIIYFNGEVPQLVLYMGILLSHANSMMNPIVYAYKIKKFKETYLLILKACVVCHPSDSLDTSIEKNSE
The species entered for the next assay is Homo sapiens. Description: Selectivity index, ratio of Ki for human A2 adenosine receptor to Ki for human A3 adenosine receptor.
The target in assay [1] is Adenosine receptors; A1 & A3 (Homo sapiens) (UniProt P30542+P0DMS8). Description: Selectivity index, ratio of Ki for human A1 adenosine receptor to Ki for human A3 adenosine receptor.

Usually Ki stands for a measure of affinity in units of concentration, obtained from inhibition or displacement. Turning to `O=c1oc2c(O)c(O)ccc2cc1-c1ccsc1`, the Ki on Adenosine receptor A1 is 3.36 µM; at Adenosine receptor A2a, 14.7 µM; on Adenosine receptor A2b it was over 30 µM; on Adenosine receptor A3 it was 5.31 µM.
Taken in the same sequence, the figures for `CC(=O)Oc1cccc2cc(-c3cccs3)c(=O)oc12` were over 100 µM, 18.8 µM, over 30 µM and 2.58 µM.
For `O=c1oc2c(O)cccc2cc1-c1ccsc1`, the Ki was 5.92 µM on Adenosine receptor A1, 9.87 µM at Adenosine receptor A2a, over 30 µM at Adenosine receptor A2b and 2.87 µM at Adenosine receptor A3.
As for `O=c1oc2c(O)c(O)ccc2cc1-c1cc(Br)cs1`, the Ki is 16.3 µM on Adenosine receptor A1, 12.2 µM on Adenosine receptor A2a, over 30 µM at Adenosine receptor A2b and 3.4 µM at Adenosine receptor A3.
Taken in the same sequence, the figures for `CC(=O)Oc1cccc2cc(-c3ccsc3)c(=O)oc12` were over 100 µM, 14.7 µM, over 30 µM and 1.82 µM.
As for `CC(=O)Oc1ccc2cc(-c3cccs3)c(=O)oc2c1OC(C)=O`, the inhibitory constant (Ki) on Adenosine receptor A1 was over 100 µM; at Adenosine receptor A2a, over 100 µM; on Adenosine receptor A2b, over 30 µM; on Adenosine receptor A3, 22.5 µM.
With `O=c1oc2c(O)cccc2cc1-c1cccs1`, the Ki was 3.36 µM on Adenosine receptor A1, 7.48 µM at Adenosine receptor A2a, over 30 µM at Adenosine receptor A2b and 1.43 µM at Adenosine receptor A3.
As for `CC(=O)Oc1ccc2cc(-c3ccsc3)c(=O)oc2c1OC(C)=O`, the Ki was over 100 µM on Adenosine receptor A1, 20.6 µM on Adenosine receptor A2a, over 30 µM on Adenosine receptor A2b and 3.6 µM on Adenosine receptor A3.
On to `O=c1oc2c(O)c(O)ccc2cc1-c1cccs1`, for which the Ki is 3.23 µM at Adenosine receptor A1, 9.98 µM at Adenosine receptor A2a, over 30 µM at Adenosine receptor A2b and 4.83 µM on Adenosine receptor A3.
In the case of `CC(=O)Oc1ccc2cc(-c3cc(Br)cs3)c(=O)oc2c1OC(C)=O`, the Ki on Adenosine receptor A1 is over 100 µM; at Adenosine receptor A2a it was over 100 µM; on Adenosine receptor A2b, over 30 µM; at Adenosine receptor A3, over 100 µM.
In the case of `O=c1oc2c(O)cccc2cc1-c1cc(Br)cs1`, the Ki is over 100 µM at Adenosine receptor A1, over 100 µM at Adenosine receptor A2a, over 30 µM on Adenosine receptor A2b and 0.746 µM at Adenosine receptor A3. In addition, the Ratio Ki (in the assay listed under Homo sapiens; in assay [1]) was 130 throughout.
Turning to `CC(=O)Oc1cccc2cc(-c3cc(Br)cs3)c(=O)oc12`, the Ki at Adenosine receptor A1 is over 100 µM; on Adenosine receptor A2a it was over 100 µM; at Adenosine receptor A2b, over 30 µM; at Adenosine receptor A3, 4.08 µM.

Source of the values: ChEMBL document CHEMBL3817835, “Progress in the development of small molecules as new human A3adenosine receptor ligands based on the 3-thiophenylcoumarin core” (Medchemcomm, 2016).
